Series [1] can be described thus: Copper chelating activity assessed as inhibition of Cu2+-induced amyloid beta (1 to 42) aggregation at 80 uM measured after 24 hrs by ThT fluorescence assay relative to control.
The next series addresses Acetylcholinesterase (Electrophorus electricus, UniProt O42275). In words: Inhibition of electric eel AChE using acetylthiocholine iodide as substrate preincubated for 15 mins followed by addition of substrate measured after 5 mins.
Series [2] can be described thus: Copper chelating activity assessed as inhibition of Cu2+-induced amyloid beta (1 to 42) aggregation at 50 uM measured after 24 hrs by uranyl acetate staining based TEM analysis.
Series [3] deals with Amyloid-beta precursor protein (Homo sapiens) (UniProt P05067). Description: Inhibition of self-induced amyloid beta (1 to 42) (unknown origin) aggregation at 50 uM measured after 24 hrs by uranyl acetate staining based TEM analysis.
Chain of Amyloid-beta precursor protein (Homo sapiens) (P05067 whole entry): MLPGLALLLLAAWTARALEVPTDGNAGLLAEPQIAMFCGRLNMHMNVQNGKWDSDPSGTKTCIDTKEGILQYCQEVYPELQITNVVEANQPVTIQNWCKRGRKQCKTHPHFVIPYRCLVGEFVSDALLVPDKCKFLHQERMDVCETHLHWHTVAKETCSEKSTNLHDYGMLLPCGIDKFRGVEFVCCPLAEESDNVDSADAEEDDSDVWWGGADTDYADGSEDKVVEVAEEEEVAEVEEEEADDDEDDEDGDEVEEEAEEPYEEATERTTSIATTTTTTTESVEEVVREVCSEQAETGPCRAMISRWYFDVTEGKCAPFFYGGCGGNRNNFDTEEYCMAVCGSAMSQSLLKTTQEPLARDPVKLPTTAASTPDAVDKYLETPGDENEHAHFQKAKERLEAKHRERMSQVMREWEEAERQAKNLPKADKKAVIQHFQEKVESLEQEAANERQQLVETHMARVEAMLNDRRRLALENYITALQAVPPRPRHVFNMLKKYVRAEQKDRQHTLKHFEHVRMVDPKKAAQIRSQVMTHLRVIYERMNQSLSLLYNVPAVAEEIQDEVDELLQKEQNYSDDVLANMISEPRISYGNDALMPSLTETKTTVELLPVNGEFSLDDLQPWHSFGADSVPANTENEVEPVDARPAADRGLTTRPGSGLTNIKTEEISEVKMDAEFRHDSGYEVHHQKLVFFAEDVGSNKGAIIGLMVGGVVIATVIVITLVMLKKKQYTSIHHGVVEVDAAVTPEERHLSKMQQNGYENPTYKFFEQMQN
The test system of series [4] is SH-SY5Y. In words: Neuroprotection against amyloid beta (1 to 42)-induced toxicity in human SH-SY5Y cells assessed as increase in cell viability at 0.1 uM preincubated for 1 hr followed by amyloid beta (1 to 42) addition and measured after 24 hrs MTT assay. The series is classed as functional, cell-based.
Series [5] in a line: Metal chelating activity assessed as compound-Cu2+ complex formation at pH 7.4.
Series [6] deals with SH-SY5Y. In words: Cytotoxicity against human SH-SY5Y cells assessed as reduction in cell viability at 0.1 uM after 24 hrs MTT assay. The series is classed as cell-based.
Series [7] relates to SH-SY5Y. Description: Neuroprotection against Fe/LAscH(-)-induced toxicity in human SH-SY5Y cells assessed as increase in cell viability at 0.1 uM preincubated for 1 hr followed by Fe/LAscH(-) addition and measured after 24 hrs MTT assay. The series is classed as functional, cell-based.
Series [8] deals with SH-SY5Y. Description: Neuroprotection against Fe/LAscH(-)-induced toxicity in human SH-SY5Y cells assessed as increase in cell viability at 1 uM preincubated for 1 hr followed by Fe/LAscH(-) addition and measured after 24 hrs MTT assay. The series is classed as functional, cell-based.
Series [9] has as its system SH-SY5Y. Description: Neuroprotection against amyloid beta (1 to 42)-induced toxicity in human SH-SY5Y cells assessed as increase in cell viability at 1 uM preincubated for 1 hr followed by amyloid beta (1 to 42) addition and measured after 24 hrs MTT assay. Type of series: functional, cell-based. On the technique in general: Tetrazolium assays rely on reduction of a dye to a coloured formazan, in cell work by metabolically active cells.

The subject of series [10] is SH-SY5Y. In words: Cytotoxicity against human SH-SY5Y cells assessed as reduction in cell viability at 1 uM after 24 hrs MTT assay. The series is classed as cell-based.
Series [11] deals with SH-SY5Y. In words: Neuroprotection against Fe/LAscH(-)-induced toxicity in human SH-SY5Y cells assessed as increase in cell viability at 2.5 uM preincubated for 1 hr followed by Fe/LAscH(-) addition and measured after 24 hrs MTT assay. The series is classed as functional, cell-based.
Series [12] relates to SH-SY5Y. Description: Cytotoxicity against human SH-SY5Y cells assessed as reduction in cell viability at 2.5 uM after 24 hrs MTT assay. Type of series: cell-based.
Series [13] concerns SH-SY5Y. In words: Neuroprotection against amyloid beta (1 to 42)-induced toxicity in human SH-SY5Y cells assessed as increase in cell viability at 2.5 uM preincubated for 1 hr followed by amyloid beta (1 to 42) addition and measured after 24 hrs MTT assay. Type of series: functional, cell-based.
Series [14] has as its target Amyloid-beta precursor protein (Homo sapiens) (UniProt P05067). In words: Inhibition of self-induced amyloid beta (1 to 42) (unknown origin) aggregation at 40 uM measured after 24 hrs by ThT fluorescence assay relative to control.
Series [15] is described as follows: Copper chelating activity assessed as inhibition of Cu2+-induced amyloid beta (1 to 42) aggregation at 40 uM measured after 24 hrs by ThT fluorescence assay relative to control.

The text below walks through data of ChEMBL document CHEMBL4196026, “Novel Tacrine-Hydroxyphenylbenzimidazole hybrids as potential multitarget drug candidates for Alzheimer's disease” (Eur J Med Chem, 2018).

The source made the active and inactive calls. The calls are words filed in the database; no cut-off is given here.

Chain of Acetylcholinesterase (O42275 whole entry): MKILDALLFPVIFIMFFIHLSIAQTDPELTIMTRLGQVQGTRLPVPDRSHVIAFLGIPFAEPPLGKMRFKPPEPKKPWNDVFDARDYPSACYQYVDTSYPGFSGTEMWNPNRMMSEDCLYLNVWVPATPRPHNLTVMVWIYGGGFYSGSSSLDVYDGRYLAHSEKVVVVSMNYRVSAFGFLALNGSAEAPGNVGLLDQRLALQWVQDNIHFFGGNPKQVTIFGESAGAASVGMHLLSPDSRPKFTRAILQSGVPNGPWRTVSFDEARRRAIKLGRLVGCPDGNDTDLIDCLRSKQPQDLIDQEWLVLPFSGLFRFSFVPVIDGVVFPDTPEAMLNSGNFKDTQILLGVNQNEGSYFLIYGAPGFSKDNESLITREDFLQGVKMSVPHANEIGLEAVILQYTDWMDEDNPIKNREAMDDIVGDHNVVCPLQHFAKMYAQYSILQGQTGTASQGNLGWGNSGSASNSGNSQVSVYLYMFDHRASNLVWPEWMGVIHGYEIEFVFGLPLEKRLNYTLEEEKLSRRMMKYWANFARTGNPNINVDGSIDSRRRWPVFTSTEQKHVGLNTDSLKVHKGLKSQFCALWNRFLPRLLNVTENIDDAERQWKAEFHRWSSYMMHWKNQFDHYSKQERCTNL

As to `O=C(NCCNc1c2c(nc3ccccc13)CCCC2)c1ccc2[nH]c(-c3ccccc3O)nc2c1`, in series [1], the inhibition worked out at 49.4%. Also, at Acetylcholinesterase (read-out: IC50), the IC50 turned out to be 36.4 nM.
With `O=C(NCCCNc1c2c(nc3ccccc13)CCCC2)c1ccc2[nH]c(-c3ccccc3O)nc2c1`, in series [1], the inhibition was found to be 77.3%. In addition, the inhibition entry in series [2] and in series [3] was “Active” in each case. In addition, the IC50 at Acetylcholinesterase (read-out: IC50) is 30.9 nM.
With `O=C(NCCCNc1c2c(nc3cc(Cl)ccc13)CCCC2)c1ccc2[nH]c(-c3ccccc3O)nc2c1`, the inhibition in series [1] worked out at 55.8%. The result with SH-SY5Y [4] and in the series on SH-SY5Y [7] was Active. In addition, the Kd in [5] came out at 0.01 nM. In the series on SH-SY5Y [6], the Activity entry was “Non-Toxic”. Besides, the IC50 at Acetylcholinesterase (read-out: IC50) amounted to 23.7 nM.
For the molecule `O=C(NCC(O)CNc1c2c(nc3cc(Cl)ccc13)CCCC2)c1ccc2[nH]c(-c3ccccc3O)nc2c1` (centres undefined), the outcome with SH-SY5Y [8] and in the series on SH-SY5Y [9] was Active. At Acetylcholinesterase (read-out: IC50), the IC50 came out at 18.1 nM. Also, the Activity entry with SH-SY5Y [10] is “Non-Toxic”.
`O=C(NCCCCNc1c2c(nc3ccccc13)CCCC2)c1ccc2[nH]c(-c3ccccc3O)nc2c1`: the inhibition in series [1] worked out at 65.5%. Moreover, on Acetylcholinesterase (read-out: IC50), the IC50 worked out at 208 nM.
On to `O=C(NCCCCNc1c2c(nc3cc(Cl)ccc13)CCCC2)c1ccc2[nH]c(-c3ccccc3O)nc2c1`, for which the result in the series with SH-SY5Y [8] and in the series with SH-SY5Y [9] was Active. Moreover, the IC50 on Acetylcholinesterase (read-out: IC50) turned out to be 142 nM. For the same molecule, the Activity entry in the series with SH-SY5Y [10] is on record as “Non-Toxic”.
Regarding `O=C(NCC(O)CNc1c2c(nc3ccccc13)CCCC2)c1ccc2[nH]c(-c3ccccc3O)nc2c1` (centres undefined), in [1], the inhibition worked out at 59.5%. Besides, the outcome with SH-SY5Y [11] and in the series with SH-SY5Y [13] was Active. Also, the IC50 on Acetylcholinesterase (read-out: IC50) was determined as 16.8 nM. In addition, in the series with SH-SY5Y [12], the Activity result is “Non-Toxic”.
With `O=C(NCCNc1c2c(nc3cc(Cl)ccc13)CCCC2)c1ccc2[nH]c(-c3ccccc3O)nc2c1`, the inhibition in series [14] was 21.9%; in [15] it was 20.9%. In the series with SH-SY5Y [8], the result was Active. Also, at Acetylcholinesterase (read-out: IC50), the IC50 was 6.3 nM. In the series on SH-SY5Y [9], the outcome was inactive. Besides, the Activity result with SH-SY5Y [10] was “Non-Toxic”.
For `Oc1ccccc1-c1nc2ccccc2[nH]1`, the IC50 entry against Acetylcholinesterase is recorded as “Not Active”.

By inhibition is commonly meant the drop in the measured response relative to a control, in per cent. A word on the IC50: it is the concentration that inhibits the measured activity by half. As usually defined, the Kd is a measure of binding affinity in units of concentration.
